Results reported in ChEMBL document CHEMBL1201862, “PubChem BioAssay data set” (2004).
Calls of active or inactive are those of the source.

What was measured:
[1] = Luminescence Cell-Based Dose Confirmation HTS to Identify Inhibitors of Platelet Dense Granule Release. [Related pubchem assays: 1663 (Primary HTS), 1678 (Summary of Project)]; format: functional
[2] = biological target: Luciferin 4-monooxygenase (Photinus pyralis, UniProt P08659); assay: inhibition of purified Photinus pyralis luciferase – biochemical, luminescence, dose response (AID 1891)
[3] = biological target: T1, Rac GTPase-activating protein 1 (Homo sapiens, UniProt Q9H0H5); assay: blockers of MgcRacGAP-driven Rac1 GTP hydrolysis – biochemical, ADP Hunter fluorescence, primary and confirmatory, confirmation (AID 624330); format: functional
T1 sequence (Q9H0H5 whole entry): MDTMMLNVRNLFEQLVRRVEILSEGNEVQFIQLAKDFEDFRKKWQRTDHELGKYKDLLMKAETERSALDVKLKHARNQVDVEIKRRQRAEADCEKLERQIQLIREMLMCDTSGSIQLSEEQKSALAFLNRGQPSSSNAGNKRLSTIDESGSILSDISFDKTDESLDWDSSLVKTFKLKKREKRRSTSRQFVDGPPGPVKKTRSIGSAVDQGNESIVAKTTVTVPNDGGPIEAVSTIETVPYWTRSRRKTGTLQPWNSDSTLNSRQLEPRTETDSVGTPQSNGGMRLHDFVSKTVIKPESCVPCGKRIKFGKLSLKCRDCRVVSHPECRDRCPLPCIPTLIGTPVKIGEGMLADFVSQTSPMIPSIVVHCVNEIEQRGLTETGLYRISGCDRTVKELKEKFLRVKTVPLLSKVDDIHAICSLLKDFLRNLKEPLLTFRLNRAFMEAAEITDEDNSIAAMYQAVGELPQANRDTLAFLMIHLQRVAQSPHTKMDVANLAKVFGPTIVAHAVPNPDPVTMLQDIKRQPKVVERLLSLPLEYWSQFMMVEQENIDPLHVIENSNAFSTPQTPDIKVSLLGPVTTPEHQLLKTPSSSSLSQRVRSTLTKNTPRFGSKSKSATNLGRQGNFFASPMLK

[4] = biological target: T2, Corticotropin-releasing factor receptor 2/Corticotropin-releasing factor-binding protein (Homo sapiens, UniProt P24387+Q13324); assay: activators of CRF receptor 2 with binding protein – uHTS hits, confirmation (AID 602473); format: functional; conditions: read-out: EC50_Mean
T2 sequence (Q13324 whole entry): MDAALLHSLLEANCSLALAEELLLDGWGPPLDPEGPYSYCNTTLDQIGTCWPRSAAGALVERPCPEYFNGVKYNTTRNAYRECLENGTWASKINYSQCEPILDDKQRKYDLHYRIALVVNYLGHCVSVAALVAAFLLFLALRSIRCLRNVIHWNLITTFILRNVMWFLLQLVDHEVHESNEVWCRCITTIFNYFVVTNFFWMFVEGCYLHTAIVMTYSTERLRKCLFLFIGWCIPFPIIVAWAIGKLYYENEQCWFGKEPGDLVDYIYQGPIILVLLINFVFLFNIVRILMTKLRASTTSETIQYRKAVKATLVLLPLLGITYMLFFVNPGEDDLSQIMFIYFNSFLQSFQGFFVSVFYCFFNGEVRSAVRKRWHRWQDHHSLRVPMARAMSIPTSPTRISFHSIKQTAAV
T2 sequence (P24387 whole entry): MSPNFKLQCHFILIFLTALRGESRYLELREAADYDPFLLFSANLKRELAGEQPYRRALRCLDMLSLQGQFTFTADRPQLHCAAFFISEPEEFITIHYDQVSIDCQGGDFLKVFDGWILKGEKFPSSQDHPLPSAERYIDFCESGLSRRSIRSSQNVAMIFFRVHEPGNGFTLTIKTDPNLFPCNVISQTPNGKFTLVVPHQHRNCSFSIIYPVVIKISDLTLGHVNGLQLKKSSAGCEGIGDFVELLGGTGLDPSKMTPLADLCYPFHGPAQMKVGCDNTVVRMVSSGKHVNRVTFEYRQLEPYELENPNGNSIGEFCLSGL

[5] = biological target: T2, Corticotropin-releasing factor receptor 2/Corticotropin-releasing factor-binding protein; assay: Dose Response confirmation of uHTS hits for small molecule antagonists of the CRF-binding protein and CRF-R2 receptor complex.; format: functional; conditions: read-out: IC50_Mean
cells = format: functional
[6] = biological target: T3, Ubiquitin-conjugating enzyme E2 N (Homo sapiens, UniProt P61088); format: functional;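 also: Dose-response confirmation in a TR-FRET assay detecting UBC13-driven polyubiquitin chain formation, inhibition measured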
T3 sequence (P61088 whole entry): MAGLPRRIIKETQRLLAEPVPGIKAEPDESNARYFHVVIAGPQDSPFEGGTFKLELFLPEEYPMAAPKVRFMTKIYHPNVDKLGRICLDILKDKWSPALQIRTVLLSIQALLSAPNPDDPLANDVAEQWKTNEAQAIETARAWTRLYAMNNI

[7] = viability of uninfected HEp-2 cells – cell-based, HTS, cytotoxicity control for RSV inhibitor project, dose response (AID 2410); format: functional; conditions: human respiratory syncytial virus
[8] = biological target: T4, Carboxy-terminal domain RNA polymerase II polypeptide A small phosphatase 1 (Homo sapiens, UniProt Q9GZU7); assay: CTDSP1 inhibitors, concentration-response, biochemical, absorbance readout, ultra-high-throughput screen actives (AID 540297); format: functional
T4 sequence (Q9GZU7 whole entry): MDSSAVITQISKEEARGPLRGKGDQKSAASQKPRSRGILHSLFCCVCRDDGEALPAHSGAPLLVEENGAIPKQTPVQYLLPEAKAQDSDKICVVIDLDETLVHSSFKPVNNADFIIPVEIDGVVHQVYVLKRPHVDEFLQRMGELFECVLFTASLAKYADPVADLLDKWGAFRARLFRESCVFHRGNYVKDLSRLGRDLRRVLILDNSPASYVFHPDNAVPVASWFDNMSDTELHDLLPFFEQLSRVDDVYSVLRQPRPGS

Cytochrome P450 2C9 = Cytochrome P450 2C9 (Homo sapiens, UniProt P11712)
[9] = microbe, parasite or virus in culture; format: functional; conditions: Mycobacterium tuberculosis
Cytochrome P450 2C19 = Cytochrome P450 2C19 (Homo sapiens, UniProt P33261); assay: Cytochrome panel assay with activity outcomes. Panel member name: p450-cyp2c19 Compounds with AC50 equal or less than 10 uM are considered active; format: functional; conditions: read-out: AC50
[10] = tested on: Streptococcus sp. 'group A'; assay: Streptococcus pyogenes SK(-)GAS viability under kanamycin – luminescence, BacTiterGlo, confirmation, counter-screen for streptokinase expression inhibitor project, dose response (AID 1900); format: functional, organism-based
[11] = Luminescence Cell-Based Dose Retest to Confirm Inhibitors of Cancer Stem Cells. [Related pubchem assays (depositor defined):AID2717, AID2721]; format: functional; conditions: Homo sapiens
Streptococcus = assay: GAS UMAA2166 growth inhibition – luminescence, BacTiterGlo, counter-screen for streptokinase expression inhibitor project, dose response (AID 1915); format: functional, organism-based;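 also: potency for reduction of bacterial viability or growth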
Streptokinase A = biological target: T5, Streptokinase A (Streptococcus pyogenes serotype M1, UniProt P10520); assay: viability-normalized secreted streptokinase activity reduction – plasminogen activation absorbance, OD405, dose response (AID 1914); format: functional, Streptococcus pyogenes M1 GAS;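 also: secreted streptokinase activity via plasminogen activation per viability signal from cell pellet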
T5 sequence (P10520 whole entry): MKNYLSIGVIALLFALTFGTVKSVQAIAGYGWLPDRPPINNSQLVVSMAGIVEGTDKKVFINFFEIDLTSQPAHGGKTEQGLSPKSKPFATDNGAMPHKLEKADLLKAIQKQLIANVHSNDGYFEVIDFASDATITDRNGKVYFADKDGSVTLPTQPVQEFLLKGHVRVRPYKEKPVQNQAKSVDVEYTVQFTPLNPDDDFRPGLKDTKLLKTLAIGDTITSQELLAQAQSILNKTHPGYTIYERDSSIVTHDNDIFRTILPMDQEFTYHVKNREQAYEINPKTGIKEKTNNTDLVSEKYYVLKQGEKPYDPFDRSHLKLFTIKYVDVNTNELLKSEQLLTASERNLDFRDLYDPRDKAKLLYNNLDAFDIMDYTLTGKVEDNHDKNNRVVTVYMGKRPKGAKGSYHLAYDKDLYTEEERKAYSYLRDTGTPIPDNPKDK

Paired box protein Pax-8 = Paired box protein Pax-8 (Homo sapiens, UniProt Q06710); assay: PAX8 transcriptional activity inhibition in RMG-I – RMG-I cells, luciferase, cherry-pick, dose response (AID 687027); format: functional, cell-based;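 also: luciferase reporter driven by Pax8 target thyroperoxidase promoter measured by SteadyGlo luminescence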
Sequence of Paired box protein Pax-8 (Q06710 whole entry): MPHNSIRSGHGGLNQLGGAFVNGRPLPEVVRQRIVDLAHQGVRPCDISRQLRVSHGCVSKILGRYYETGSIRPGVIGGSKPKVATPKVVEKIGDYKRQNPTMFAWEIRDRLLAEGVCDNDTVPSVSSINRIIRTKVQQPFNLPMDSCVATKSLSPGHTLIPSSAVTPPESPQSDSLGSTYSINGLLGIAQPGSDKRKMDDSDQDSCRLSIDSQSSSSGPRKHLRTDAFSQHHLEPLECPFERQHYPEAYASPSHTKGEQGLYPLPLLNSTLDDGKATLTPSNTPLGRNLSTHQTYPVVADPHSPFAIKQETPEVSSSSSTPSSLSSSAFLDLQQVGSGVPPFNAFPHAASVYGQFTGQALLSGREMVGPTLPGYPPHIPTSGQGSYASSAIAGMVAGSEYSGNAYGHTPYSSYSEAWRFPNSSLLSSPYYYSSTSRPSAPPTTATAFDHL

Sequence of Luciferin 4-monooxygenase (P08659 whole entry): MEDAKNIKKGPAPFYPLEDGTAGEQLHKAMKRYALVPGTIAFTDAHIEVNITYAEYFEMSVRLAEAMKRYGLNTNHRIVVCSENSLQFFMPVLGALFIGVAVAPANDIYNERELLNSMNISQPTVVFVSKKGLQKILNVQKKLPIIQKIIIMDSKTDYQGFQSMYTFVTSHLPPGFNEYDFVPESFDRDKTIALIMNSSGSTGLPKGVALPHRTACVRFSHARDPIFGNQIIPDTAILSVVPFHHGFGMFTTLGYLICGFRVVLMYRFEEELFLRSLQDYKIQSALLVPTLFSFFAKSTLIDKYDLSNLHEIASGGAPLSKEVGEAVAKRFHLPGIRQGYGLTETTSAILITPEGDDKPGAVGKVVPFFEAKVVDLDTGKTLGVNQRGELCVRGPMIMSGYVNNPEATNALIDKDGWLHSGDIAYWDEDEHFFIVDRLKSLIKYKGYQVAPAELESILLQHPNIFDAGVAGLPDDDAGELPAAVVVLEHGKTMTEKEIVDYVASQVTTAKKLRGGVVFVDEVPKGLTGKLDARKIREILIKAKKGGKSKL
Sequence of Cytochrome P450 2C9 (P11712 whole entry): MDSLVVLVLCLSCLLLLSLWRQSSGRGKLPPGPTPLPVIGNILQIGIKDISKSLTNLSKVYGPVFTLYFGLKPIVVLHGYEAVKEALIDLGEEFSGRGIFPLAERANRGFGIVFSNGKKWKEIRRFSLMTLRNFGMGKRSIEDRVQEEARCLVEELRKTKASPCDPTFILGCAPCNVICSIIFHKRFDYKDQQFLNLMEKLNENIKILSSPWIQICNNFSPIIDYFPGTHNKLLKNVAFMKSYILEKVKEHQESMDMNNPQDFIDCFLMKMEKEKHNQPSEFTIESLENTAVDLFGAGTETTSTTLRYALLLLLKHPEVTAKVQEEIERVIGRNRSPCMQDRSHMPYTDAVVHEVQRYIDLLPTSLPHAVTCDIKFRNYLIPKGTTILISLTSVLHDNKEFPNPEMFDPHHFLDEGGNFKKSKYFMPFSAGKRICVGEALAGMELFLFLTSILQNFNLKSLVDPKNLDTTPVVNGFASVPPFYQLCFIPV
Sequence of Cytochrome P450 2C19 (P33261 whole entry): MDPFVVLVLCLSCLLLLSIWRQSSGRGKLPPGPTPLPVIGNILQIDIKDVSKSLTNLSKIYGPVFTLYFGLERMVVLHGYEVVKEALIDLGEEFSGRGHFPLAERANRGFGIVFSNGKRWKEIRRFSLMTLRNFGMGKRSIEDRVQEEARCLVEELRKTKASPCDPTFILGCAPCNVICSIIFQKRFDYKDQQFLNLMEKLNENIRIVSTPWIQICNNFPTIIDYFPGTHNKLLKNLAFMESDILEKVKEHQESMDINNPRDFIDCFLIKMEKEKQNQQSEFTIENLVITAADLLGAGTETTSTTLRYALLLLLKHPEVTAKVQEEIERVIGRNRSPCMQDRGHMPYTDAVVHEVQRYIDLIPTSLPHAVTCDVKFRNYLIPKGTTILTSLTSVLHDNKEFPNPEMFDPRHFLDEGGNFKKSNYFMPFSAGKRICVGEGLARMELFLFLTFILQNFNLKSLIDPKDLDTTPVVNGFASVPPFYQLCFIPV

## Nc1ccc(-c2nc3ccccc3o2)cc1
[1]
  EC50: > 112 µM (not active)
[2]
  EC50: 51.5 µM (active)

## O=S(=O)(c1cccc(-c2nnc(SC(F)F)n2-c2ccccc2)c1)N1CCCCC1
[1]
  EC50: > 112 µM (not active)
[2]
  EC50: > 112 µM (not active)

## O=C(COc1ccccc1)N1CCN(C2CCCC2)CC1
[3]
  IC50: 127 µM (active)

## O=C(COc1cccc2c1CCN(Cc1ccc(Br)cc1)C2=O)NCc1ccco1
[4]
  EC50: > 53 µM (inactive)
[5]
  IC50: > 47.1 µM (inactive)

## CCOC(=O)c1ccc(COC(=O)c2ccc(-c3nnc(-c4ccccc4)o3)cc2)o1
[1]
  EC50: 8.77 µM (active)
[2]
  EC50: 28.5 µM (active)
cells
  IC50: > 50 µM (active)

## CCCC(=O)NC(=S)Nc1cccc2c(O)cccc12
[3]
  IC50: 47.7 µM (active)

## COc1ccc(CCNC(=O)c2cc3c(=O)n4ccccc4nc3n(Cc3ccco3)c2=N)cc1OC
[1]
  EC50: 44 µM (active)
[2]
  EC50: > 112 µM (not active)

## Cc1ccccc1CN1CCC(CNC(=O)C2CCCN(c3ncnc4c3nc3n4CCCCC3)C2)CC1 (centres undefined)
[6]
  IC50: > 20 µM (inactive)

## CCOC(=O)C1=C(c2ccccc2)O/C(=C(\C(=O)OC)C(F)(F)F)S1
[6]
  IC50: > 20 µM (inactive)

## OCCN1CCN(Cc2ccc3ccccc3c2)CC1
[3]
  IC50: 95.6 µM (active)

## COc1cc(-c2nc3cnccn3c2Nc2ccc(C)cc2)ccc1O
[3]
  IC50: 29.3 µM (active)

## Cc1nnc2n(Cc3ccccc3)c(=O)c3c4c(sc3n12)COC(C(C)C)C4 (centres undefined)
[7]
  CC50: 31.3 µM (active)
[1]
  EC50: > 112 µM (not active)
[2]
  EC50: > 112 µM (not active)

## Cc1cc(C(=O)COc2ccc3ccc(=O)oc3c2)c(C)n1Cc1cccs1
[8]
  IC50: 6.2 µM (active)

## C=CCOc1ccc(/C=C\c2nc(O)c([N+](=O)[O-])c(O)n2)cc1OC
[8]
  IC50: 13.7 µM (active)

## CCCCCc1cc(=O)oc2c(C(CCN3CCCC3)c3cc(OC)c(OC)c(OC)c3)c(OC)cc(OC)c12 (centres undefined)
[6]
  IC50: > 20 µM (inactive)

## Cc1cc(C)nc(SCc2nnc(SCc3ccc([N+](=O)[O-])cc3)n2Cc2ccco2)n1
[4]
  EC50: > 53 µM (inactive)
[5]
  IC50: > 47.1 µM (inactive)

## CCOC(=O)c1cc(CC)sc1NC(=O)c1cc(OCC)c(OCC)c(OCC)c1
Cytochrome P450 2C9
  AC50: 20 µM (inconclusive)
[9]
  CC50: > 40 µM (active)
Cytochrome P450 2C19
  AC50: 25.1 µM (inconclusive)

## COc1ccc(F)cc1S(=O)(=O)NCC(=O)NCc1cc(=O)n(C)c(=O)n1C
[4]
  EC50: > 53 µM (inactive)
[5]
  IC50: > 47.1 µM (inactive)

## COC(=O)c1oc2ccc(Br)cc2c1-n1cccc1
[1]
  EC50: > 112 µM (not active)
[2]
  EC50: > 112 µM (not active)

## Cc1cc(-c2nnc(CCC(=O)NC(C)c3cccc4ccccc34)o2)no1 (centres undefined)
[1]
  EC50: > 112 µM (not active)
[2]
  EC50: > 112 µM (not active)

## Cc1c(CC(=O)O)c(=O)oc2c(C)c3occ(-c4ccc(Br)cc4)c3cc12
[8]
  IC50: 7.37 µM (active)

## Cc1cc(OC(C)C(=O)NCc2ccncc2)c2c3c(c(=O)oc2c1)CCC3 (centres undefined)
[1]
  EC50: > 112 µM (not active)
[2]
  EC50: > 112 µM (not active)

## CCOc1ccc(N)cc1OC
[3]
  IC50: 42.9 µM (active)

## C#CCOCCOCCOCCNc1nc(N2CCOCC2)nc(N2CCN(C(=O)CCCCCCCCCCNC(=O)[C@H](CO)n3cc(CCCCCN)nn3)CC2)n1
[6]
  IC50: > 20 µM (inactive)

## Cc1cc(C=C2C(=O)NC(=S)NC2=O)c(C)n1C1CCCC1
[9]
  CC50: > 40 µM (active)
cells
  IC50: 10.4 µM (active)

## COC(=O)c1cc(NCc2ccccc2F)ccc1N1CCOCC1
[3]
  IC50: 168 µM (active)

## CC(C)=CCOc1ccc([C@@H]2COc3c(ccc4c3C=CC(C)(C)O4)C2)c(O)c1
[9]
  CC50: > 40 µM (active)
[10]
  EC50: 2.28 µM (active)
[11]
  AC50: 3.44 µM (active)
Streptococcus
  EC50: 2.25 µM (active)
Streptokinase A
  EC50: > 150 µM (not active)

## COC(=O)C1=C(C)N(Cc2ccccc2)C(NCc2cc(OC)c(OC)c(OC)c2)=N[C@H]1c1ccc(Br)cc1
[6]
  IC50: > 20 µM (inactive)

## COC(=O)c1sc(N)c(C(=O)OC)c1COC(=O)CNS(=O)(=O)c1ccc(C)cc1
[1]
  EC50: > 112 µM (not active)
[2]
  EC50: > 112 µM (not active)

## O=C1NC2(CCCCCC2)N=C1c1ccc(Br)cc1
[6]
  IC50: > 20 µM (inactive)

## O=C(Nc1cc(S(=O)(=O)N2CCCCC2)ccc1Cl)C1COc2ccccc2O1 (centres undefined)
[8]
  IC50: 46.4 µM (active)

## C[C@@H]1CN([C@@H](C)CO)C(=O)c2ccccc2-c2ccccc2CO[C@@H]1CN(C)Cc1ccc2c(c1)OCCN2C
Paired box protein Pax-8
  AC50: 29.5 µM (active)

## C[C@H](CO)N1C[C@H](C)[C@@H](CN(C)Cc2ccc(Cl)c(Cl)c2)OCCCC[C@H](C)Oc2ccc(NC(=O)Nc3ccc(C(F)(F)F)cc3)cc2C1=O
Paired box protein Pax-8
  AC50: 4.17 µM (active)

## Cc1ccc(C2=[N+]([O-])C3(CCCCC/C3=N\O)N(O)C2(C)C)o1 (centres undefined)
[1]
  EC50: > 112 µM (not active)
[2]
  EC50: > 112 µM (not active)

## O=C(Cc1ccccc1)N/N=C/c1ccc(OCC(=O)Nc2ccccc2)cc1
[8]
  IC50: 10.2 µM (active)

## N#CCSc1nc2sccc2c(=O)n1-c1ccccc1
[4]
  EC50: > 53 µM (inactive)
[5]
  IC50: > 47.1 µM (inactive)
